Test results from ChEMBL document CHEMBL5257032, “Therapeutic potential of coumarins as antiviral agents” (Eur J Med Chem, 2016).

Test system: Influenza A virus
Assay: Antiviral activity against Oseltamivir-resistant Influenza A virus
Format: functional, organism-based

Work on `Cc1cc(=O)oc2c1ccc1oc(C(=O)c3ccccc3)c(-c3ccccc3)c12` yielded an EC50 of 21 nM.
